{"source": "patent US6723897B2", "about": "“Methods for controlling gibberellin levels” (Monsanto Technology, LLC, priority 1998, dated 2004)", "key": {"[1]": {"system": "R1 lines from pMON29220 (P-ICL/canola antisense CPS)", "assay": "Emergence of R1 canola seed (pMON29220) with exogenous GA3", "assay_type": "in vivo, Brassica napus", "conditions": "GA3 10^−5 M to the seed or soil; lines with 2 day delay in emergence", "from_the_text": "Seeds are produced from plants transformed with plasmid pMON29220 (P-ICL/canola antisense CPS). These are planted and analyzed for germination phenotype. A 2 day delay in emergence is observed for 58% of the R1 lines tested from pMON29220."}, "A3237 soybean": {"system": "A3237 soybean", "assay": "GA3 soil drench, shoot length of control soybean", "assay_type": "in vivo, Glycine max", "conditions": "line A3237; +3 × 10^−6 M GA3 soil drench; 7 days after planting", "from_the_text": "Thirty-five soybean plants are produced by transformation with pMON29801 (FIG. 7) containing the antisense CPS conserved core (asCPScc) gene driven by constitutive FMV promoter. The seed (R1) from the initial R0 transgenic lines is collected. R1 seeds are sown in 4-inch pots filled with commercial potting soil (Metromix 350) that is saturated with water or GA3 at a rate of either 3×10^−6 or 10^−5 M. Typically, 20 seeds are sown in 10 pots for each treatment, except where the seed supply is limiting. Pots are incubated in a greenhouse routinely used for soybean growth. Emergence is scored versus days after planting (DAP). Two soybean lines, 724 and 720, show a delayed emergence phenotype. Line 724 emergence is 1 to 2 days later than the control.\nGA3 added to plasmid pMON29801 transgenic soybean seeds as a soil drench also restores soybean emergence timing and plant height during early seedling growth. Rates of GA3 between 1×10^−6 and 1×10^−5 M, when added to soil either immediately before planting or immediately after, restores normal shoot length in emerged Line #719 seedlings (Table 5)."}}}
{"compound": "C=C1C[C@]23C[C@@]1(O)CC[C@H]2[C@@]12C=C[C@H](O)[C@@](C)(C(=O)O1)[C@H]2[C@@H]3C(=O)O", "note": "[GA3, gibberellic acid]", "values": [{"measurement": "emergence delay", "setting": "[1]", "result": "rescuing the emergence delay"}, {"measurement": "Plant height (cm)", "setting": "A3237 soybean", "result": "14.9 (0.3) cm"}]}
